Patent US20080201790A1, “Method and product for regulating cell responsiveness to external signals” (priority 1993, published 2008)

What was measured:
[1] = tested on: p42/p44 MAPK; experiment: MAPK assay (DEAE-Sephacel, EGFR662-681 peptide) in L929 cells; type: cell-based, murine
Protocol: In panel A cells were treated for 10 minutes with the indicated concentration of TNFα. JNK activation was measured using a solid phase kinase assay resulting in phosphorylation of GST-Jun. In […] the time course of MAPK activation is shown. MAPK was isolated from cell lysates on DEAE sephacel columns and MAPK activation was measured by phosphorylation of the EGFR peptide substrate. Panel C depicts the concentration curve of MAPK activation by TNFα. Cells were treated with the indicated concentration of TNFα and MAPK was assayed.
FIG. 26 depicts the activation of MAPK by bFGF in L929 cells. Serum starved L929 cells were stimulated for 10 min with the indicated concentration of bFGF.
Cell lines and culture. L929 cells (ATCC CCL1 were maintained in Dulbecco's modified Eagle's medium with 5% newborn calf serum and 5% bovine calf serum (BCS) supplemented with 100 ug/ml streptomycin and 100 U/ml penicillin. The cells were grown in 10 cm dishes at 37° C. in 7.5% CO2. Cells were made quiescent where indicated by incubation in Dulbecco's modified Eagle's medium and 0.1% bovine serum albumin for 24 h. Recombinant murine TNFα and recombinant human bFGF (147aa) were from R&D Systems, Minneapolis, Minn. Cells were pretreated where indicated with the MEK-1 inhibitor PD#098059 (Parke-Davis Pharmaceutical Corp. Ann Arbor, Mich.) for 1 h at 37° C. Cells were stimulated by incubation with the indicated cytokine or growth factor for various times at 37° C. Stimulation was stopped by rinsing the plates twice with ice cold phosphate buffered saline (PBS) and lysing the cells in the appropriate lysis buffer. Cells were scraped from the plates and nuclei were pelleted for 10 min at 14,000 RPM in a microcentrifuge. JNK assay. JNK activity was measured using a solid state kinase assay in which glutathione S-transferase-c-Jun (1-79) (GST-JUN) cound to glutathione-Sepharose 4B beads was used to affinity purify JNK and then JNK activity was measured in an in vitro kinase assay using the sepharose bound GST-Jun as a substrate (Hibi, M., et al. (1993) Genes & Development 7:2135-2148). Stimulated or unstimulated cells were lysed in 0.5% Nonidet P-40, 20 mM HEPES pH 7.2, 100 mM NaCl, 2 mM dithiothreitol, 1 mM EDTA, 1.0 mM phenylmethylsulfonylfluoride, 1 μg/ml aprotinin and the nuclei pelleted. Lysates were normalized for protein content. JNK was affinity purified from 50-100 μg of cell lysate by the addition of 10 ul of GST-Jun sepharose slurry (2 μg GST-Jun). Binding to GST-Jun efficiently isolates the two major forms of JNK (p45 and p55) and under the conditions used JNK isolation was linear for 10-250 μg of cell lysate. The lysates were rotated at 4° C. for 1-3 h. Beads were washed twice in lysis buffer and then twice in PAN (10 mM PIPES, pH 7.0, 100 mM NaCl, 21 μg/ml aprotinin). Kinase reactions were carried out at 30° C. for 15 min in 20 mM Hepes pH 7.2, 20 mM β-glycerophosphate, 10 mM p-nitrophenyl phosphate, 10 mM MgCl2, 1 mM dithiothreitol, 50 μm sodium vanadate, 10 μCi γ^32P-ATP 4300 Ci/mmole. The kinase reaction was linear from 0-30 min. MAPK Assay MAPK activity was measured exactly as described previously (Gardner, A. M., et al. (1994) Meth. Enzymol. 238:258-270) with the exception that MonoQ FPLC fractionation was replaced by step elution from a DEAE-Sephacel column using 0.5 M NaCl in loading buffer. The eluate was assayed in triplicate using the epidermal growth factor receptor 662-681 peptide (EGFR662-681) as a selective substrate for MAPK activity (Heasley, L. E., et al. (1994) American Journal of Physiology (Renal Fluid Electrolyte Physiol. 36) 267:F366-F373). […] Cells were lysed by scraping in ice cold RIPA buffer (50 mM Tris-HCl, pH 7.2, 150 mM NaCl, 0.1% SDS, 0.5% sodium deoxycholate, 1.0% Triton X-100, 10 mM sodium pyrophosphate, 25 mM β-glycerophosphate, 2 mM sodium vanadate, 2.1 μg/ml aprotinin) and the nuclei were pelletted. […]

[2] = tested on: C-Raf; experiment: Raf activation assay in L929 cells, C-Raf; type: cell-based, murine

## bFGF: recombinant human bFGF (147aa), basic fibroblast growth factor
[1]; serum starved L929 cells, 10 min
  concentrations giving maximal stimulation of MAPK activity: 0.25 to 0.5 ng/mL
[2]
  activation of C-Raf (phosphorylation of kinase-inactive MEK-1): activation of both B-Raf and C-Raf

## TNFα
[1]; 1 ng/ml TNFα
  MAPK activity stimulated above basal: 20%
[1]; 1 ng/ml TNFα, FIG. 27 panel B
  effect on MAPK activity: only modest stimulatory effects on MAPK activity
[1]; L929 cells
  concentration required to stimulate p42/p44 MAPK 2-3 fold: Greater than 10 ng/ml
  effect on bFGF stimulation of MAPK activity: had little or no effect on bFGF stimulation of MAPK activity
  time to maximal stimulation of p42/p44 MAPK activity: 5 to 10 min
[2]
  activation of C-Raf (phosphorylation of kinase-inactive MEK-1): does not significantly activate either isoform of Raf
